The test system of test [1] is Salmonella enterica subsp. enterica serovar Typhimurium. As to the kind of experiment: Inhibition of Multidrug resistance efflux pump in Salmonella enterica serovar typhimurium SL1344 (SE03) assessed as relative fluorescence index using ethidium bromide as substrate at 25 uM by fluorescence based analysis.
The test system of test [2] is Micrococcus luteus. The test can be described thus: Antibacterial activity against Micrococcus luteus 28001 assessed as inhibition zone incubated for 24 hrs by agar plate method. It counts as functional.
Test [3] relates to Enterobacter cloacae. The test can be described thus: Antibacterial activity against Enterobacter cloacae 45301 assessed as inhibition zone incubated for 24 hrs by agar plate method. It counts as functional.
For test [4], the system named is Staphylococcus aureus. The test can be described thus: Inhibition of biofilm formation in Staphylococcus aureus 272123 at 100 uM incubated for 48 hrs by crystal violet staining based analysis. It counts as functional.
A short description of test [5]: Inhibition of Multidrug resistance efflux pump in Staphylococcus aureus 272123 assessed as relative fluorescence index using ethidium bromide as substrate at 25 uM by fluorescence based analysis.
For test [6], the system named is Staphylococcus aureus. The test can be described thus: Inhibition of biofilm formation in Staphylococcus aureus ATCC 25923 at 100 uM incubated for 48 hrs by crystal violet staining based analysis. It counts as functional.
Test [7] can be described thus: Inhibition of quorum sensing system in Chromobacterium violaceum CV026 assessed as reduction in pigment production co-cultured with Sphingomonas paucimobilis Ezf 10-17 for 24 to 48 hrs. To be noted: time 24-48 hrs.
The test system of test [8] is Aspergillus fumigatus. The test can be described thus: Antifungal activity against Aspergillus fumigatus ATCC 204305 assessed as inhibition of fungal growth by broth microdilution method. It counts as functional.
For test [9], the system named is Staphylococcus aureus. As to the kind of experiment: Antibacterial activity against methicillin and ofloxacin-resistant Staphylococcus aureus 272123 assessed as inhibition of bacterial growth by broth microdilution method. It counts as functional.
Test [10] concerns Enterococcus faecalis. The test can be described thus: Antibacterial activity against Enterococcus faecalis ATCC 29212 assessed as inhibition of bacterial growth by broth microdilution method. It counts as functional.
Test [11] has as its system Enterococcus faecalis. The test can be described thus: Antimicrobial adjuvant activity against Enterococcus faecalis B3/101 assessed as potentiation of vancomycin-induced antibacterial activity by measuring fold reduction in vancomycin MIC at 64 ug/ml by broth microdilution method. It counts as functional. To be noted: dose 64 µg/ml.
Test [12] is described as follows: Inhibition of quorum sensing system in Chromobacterium violaceum wild type 85 assessed as reduction in pigment production incubated for 24 to 48 hrs. As to conditions: time 24-48 hrs.
The subject of test [13] is Serratia marcescens. As to the kind of experiment: Inhibition of quorum sensing system in Serratia marcescens AS-1 assessed as reduction in pigment production incubated for 24 to 48 hrs. As to conditions: time 24-48 hrs.
Test [14] has as its system Salmonella typhimurium. As to the kind of experiment: Antibacterial activity against Salmonella enterica serovar typhimurium SL1344 (SE03) assessed as inhibition of bacterial growth by broth microdilution method. It counts as functional, Salmonella enterica subsp. enterica serovar Typhimurium.
Test [15] deals with Candida albicans. As to the kind of experiment: Antifungal activity against Candidia albicans ATCC 10231 assessed as inhibition of fungal growth by broth microdilution method. It counts as functional.
The test system of test [16] is Salmonella enterica subsp. enterica serovar Typhimurium. As to the kind of experiment: Inhibition of Multidrug resistance efflux pump in Salmonella enterica serovar typhimurium SL1344 (SE03) assessed as relative fluorescence index using ethidium bromide as substrate at 50 uM by fluorescence based analysis.
The subject of test [17] is Staphylococcus aureus. As to the kind of experiment: Antibacterial activity against Staphylococcus aureus ATCC 25923 assessed as inhibition of bacterial growth by broth microdilution method. It counts as functional.
Test [18] concerns Trichophyton rubrum. The test can be described thus: Antifungal activity against Trichophyton rubrum FF5 assessed as inhibition of fungal growth by broth microdilution method. It counts as functional.
Test [19] has as its system Escherichia coli. As to the kind of experiment: Antimicrobial adjuvant activity against ESBL-producing Escherichia coli SA/2 assessed as potentiation of cefotaxime-induced antibacterial activity by measuring fold reduction in cefotaxime MIC at 64 ug/ml by broth microdilution method. It counts as functional. As to conditions: dose 64 µg/ml.
Test [20] can be described thus: Inhibition of Multidrug resistance efflux pump in Staphylococcus aureus 272123 assessed as relative fluorescence index using ethidium bromide as substrate at 50 uM by fluorescence based analysis.
Test [21] has as its system Escherichia coli. As to the kind of experiment: Antibacterial activity against Escherichia coli ATCC 25922 assessed as inhibition of bacterial growth by broth microdilution method. It counts as functional.
Test [22] has as its system Pseudomonas aeruginosa. The test can be described thus: Antibacterial activity against Pseudomonas aeruginosa ATCC 27853 assessed as inhibition of bacterial growth by broth microdilution method. It counts as functional.
Test [23] relates to Candida albicans. The test can be described thus: Antifungal activity against Candida albicans ATCC 10231 assessed as inhibition of fungal growth incubated for 18 hrs by optical density based analysis. It counts as functional.
The subject of test [24] is Escherichia coli. As to the kind of experiment: Antibacterial activity against Escherichia coli ATCC 25922 assessed as inhibition zone incubated for 24 hrs by disc diffusion method. It counts as functional.
For test [25], the system named is Staphylococcus aureus. The test can be described thus: Antibacterial activity against Staphylococcus aureus ATCC 25923 assessed as inhibition zone incubated for 24 hrs by disc diffusion method. It counts as functional.
Test [26] concerns Klebsiella pneumoniae. As to the kind of experiment: Antibacterial activity against Klebsiella pneumoniae ATCC 13883 assessed as inhibition zone incubated for 24 hrs by disc diffusion method. It counts as functional.
Test [27] has as its system Staphylococcus epidermidis. As to the kind of experiment: Antibacterial activity against Staphylococcus epidermidis ATCC 12228 assessed as inhibition zone incubated for 24 hrs by disc diffusion method. It counts as functional.
Test [28] has as its system Pseudomonas aeruginosa. As to the kind of experiment: Antibacterial activity against Pseudomonas aeruginosa ATCC 27853 assessed as inhibition zone incubated for 24 hrs by disc diffusion method. It counts as functional.

Each structure is given as a SMILES string. Converted amounts (≈) assume the structure as drawn.

`N#CC(C#N)=NNc1cccc(Cl)c1`: the RFU in test [1] stood at 0.3.

For the molecule `COc1cc(/C=C2\CCC/C(=C\c3cc(OC)c(OC)c(OC)c3)C2=O)cc(OC)c1OC`, the “inhibition zone (IZ)” value in [2] is reported as 9 mm; in [3], 10 mm.

For `COC(=O)[C@H]1[C@H]2C[C@@H]3c4[nH]c5cc(OC)ccc5c4CCN3C[C@H]2C[C@@H](OC(=O)c2cc(OC)c(OC)c(OC)c2)[C@@H]1OC` [RESERPINE], the inhibition at 100 µM in test [4] came out at 72.1%; in test [6] it was 22.3%. Besides, in test [5], the RFU was 0.35.

On to `O=C1/C(=C/c2ccccc2Br)CC/C1=C\c1ccccc1Br`, for which the “inhibition zone (IZ)” value in test [3] amounted to 10 mm.

Turning to `COc1cccc(/C=C2\COC/C(=C\c3cccc(OC)c3OC)C2=O)c1OC`, the results for the Activity in [7], in test [12] and in [13] were 31 mm, 0 mm and 0 mm, respectively. Besides, the MIC in [8] was > 128 µg/mL; in test [9], > 64 µg/mL; in [10], > 64 µg/mL; in test [14] it was > 64 µg/mL; in test [15] it was > 128 µg/mL; in test [17], > 64 µg/mL. Further, the MIC in [18] was > 128 µg/mL; in test [21] it was > 64 µg/mL; in test [22], > 64 µg/mL. For the same molecule, the inhibition at 100 µM in test [4] turned out to be 46.9%; in test [6], 0%. For the same molecule, the “fold change (FC)” value in test [11] was 32; in test [19], 16. Besides, the RFU in [16] turned out to be 0.12; in test [20] it was 0.44.

With `COc1cc(OC)c2c(c1)OC/C(=C\c1ccccc1)C2=O`, the MIC in [23] came out at 25 µM (≈ 7.41 µg/mL).

With `COc1cccc(/C=C2\CCc3ccccc3C2=O)c1`, the “inhibition zone (IZ)” value in test [24] stood at 17 mm; in test [25] it was 18 mm; in [26] it was 18 mm; in test [27] it was 15 mm; in test [28], 18 mm.

Values taken from ChEMBL document CHEMBL5143672, “New diarylpentanoids and chalcones as potential antimicrobial adjuvants” (2022).
